Measured values published in patent publication US6538028B1, “Method for inhibiting complement activation” (Vanderbilt University, priority 2000, dated 2003).
Several values for one entry are separate records, joined by “and”; a condition that tells them apart may be missing. Identical values can stand only once. Like-named read-outs stand apart in the source and are kept apart here. Marks after values point to notes of the source that are not given here.

Assays:
[1] = tested on: piglet lungs perfused with human blood
Method: […] piglets (4-6 kg) were used in an established in situ ex vivo isolated lung perfusion model. Piglet lungs were perfused with unmodified human blood or blood treated with either aurintricarboxylic acid (ATA, 0.5 mg/mL; GPIb inhibitor), SC52012A (SC, 0.2 μg/mL; GPIIb/IIIa antagonist, G.D. Searle & Co. of Chicago, Ill.), or both. Thus, experimental groups received either 500 mg of ATA, 200 μg of SC52012A, or both drugs added to fresh human blood perfusate (pooled from three donors) prior to lung perfusion, while control groups received unmodified blood.
Pulmonary vascular resistance (PVR) was calculated from pulmonary artery land vein pressures and flow. Pulmonary vein effluent was collected serially for comparison of complement activation (C3a), mast cell activation (histamine) and thromboxane production (TXB2) between groups. Survival endpoints were loss of transpulmonary flow, loss of oxygenation across the lungs, frank tracheal edema, and loss of perfusate volume (˜1L) into lung parenchyma.

complement (C3a, C5b-9) = details: for C3a Mean: mean of two samples; for C3a / C5b-9: single sample
Method: Platelet poor plasma (PPP—Example 4) and platelet rich plasma (PRP—Example 5) was prepared from human heparinized blood. Human plasma was treated with ATA (0.5 mg/ml), SC (0.5 μg/ml), ATA+SC, bivalirudin (HIRULOG®, 0.1 g/L), or water (negative control) and then incubated in presence of zymosan (10 mg/mL) or cobra venom factor (CVF, 1 or 5 U/mL) to activate complement (negative control is water), for one hour at 37° C. with shaking. Then, the samples were subjected to centrifugation at 10,000 g for 45 minutes. The supernatant was then frozen in small aliquots at −70° C. C3a and C5b-9 levels were then assayed using commercial ELISA kits (Quidel).

[2] = tested on: piglet lungs perfused with heparinized human blood
Method: In an established in situ, ex vivo model, piglet lungs were perfused with either heparinized (3,000 U/L) human blood or with blood additionally pretreated with 140 mg/L of bivalirudin (a semisynthetic analogue of hirudin). Pulmonary vein effluent was collected serially for measurement of complement activation (C3a), mast cell activation (histamine), and thrombin formation (F1+2). Survival endpoints were loss of transpulmonary blood flow, loss of oxygenation across the lungs, and sequestration of perfusate volume (˜1 L) into the lung. Statistical comparisons were made using the 2-tailed t-test.

[3] = PPP, CVF 1U, listed as HIRULOG ®

O=C(O)C1=CC(=C(c2ccc(O)c(C(=O)O)c2)c2ccc(O)c(C(=O)O)c2)C=CC1=O [ATA, aurintricarboxylic acid]
ΔC3a, 1 min, μg/mL (Mean ± SEM) ([1]; 1 min, pulmonary vein effluent): 0.30* μg/mL | Platelet sequestration at 10 min ([1]; 10 min, controls 89%): 51% | ΔC3a, 10 min, μg/mL (Mean ± SEM) ([1]; 10 min, pulmonary vein effluent): 1.81 µg/mL | median survival ([1]; control 12 min): 25 min | Median Survival in min (95% conf int) ([1]; pig lung perfused with human blood, ATA 0.5 mg/mL, SC 0.2 μg/mL): 25* min

bivalirudin
C5b-9 Mean (complement (C3a, C5b-9); PPP, CVF 1U): 917 ng/mL | C3a Mean (complement (C3a, C5b-9); PPP, CVF 1U): 1350 ng/mL | C3a (complement (C3a, C5b-9); [3]): 1250 ng/mL and 1450 ng/mL | C5b-9 (complement (C3a, C5b-9); [3]): 890 ng/mL and 943 ng/mL | C5b-9 Mean (complement (C3a, C5b-9); PPP, water (no activator)): 26 ng/mL | C3a Mean (complement (C3a, C5b-9); PPP, water (no activator)): 548 ng/mL | C5b-9 (complement (C3a, C5b-9); PPP, water (no activator)): 26 ng/mL | C3a (complement (C3a, C5b-9); PPP, water (no activator), 1 h 37° C., listed as HIRULOG ®): 590 ng/mL and 505 ng/mL | C5b-9 Mean (complement (C3a, C5b-9); PRP, CVF 1U): 842 ng/mL | C3a Mean (complement (C3a, C5b-9); PRP, CVF 1U): 1650 ng/mL | C5b-9 (complement (C3a, C5b-9); PRP, CVF 1U): 842 ng/mL | C3a (complement (C3a, C5b-9); PRP, CVF 1U, listed as HIRULOG ®): 1800 ng/mL and 1500 ng/mL | C5b-9 Mean (complement (C3a, C5b-9); PRP, water (no activator)): 126 ng/mL | C3a Mean (complement (C3a, C5b-9); PRP, water (no activator)): 435 ng/mL | C5b-9 (complement (C3a, C5b-9); PRP, water (no activator)): 126 ng/mL | C3a (complement (C3a, C5b-9); PRP, water (no activator), 1 h 37° C., listed as HIRULOG ®): 490 ng/mL and 380 ng/mL | thrombin production limited (as measured by F1+2) [2]: more than 90% | ΔC3a 1 min μg/ml (± SEM) ([2]; 1 min): 0.82 (0.8)* μg/ml | PVR cm H2O/mL/min 5 min (± SEM) ([2]; 5 min): 0.16 (.05)* cm H2O/mL/min | Δ histamine 10 min nM (± SEM) ([2]; 10 min): 21 (4)* nM | ΔC3a 10 min μg/ml (± SEM) ([2]; 10 min): 1.97 (1) μg/ml | ΔF1 + 2 10 min nM (± SEM) ([2]; 10 min, thrombin formation): 0.5 (0.8)* nM | Survival Min (± SEM) ([2]; bivalirudin 140 mg/L in heparinized human blood): 77 (22)* Min | mean survival ([2]; control 8 minutes): 77 min | Complement activation ([2]; in words): significantly blunted | histamine release ([2]; in words): significantly decreased | intrapulmonary platelet sequestration ([2]; in words): significantly blunted | rise in PVR ([2]; in words): significantly decreased
